Experimental data as given in US8080566B1, “Carbazole inhibitors of histamine receptors for the treatment of disease” (Kalypsys, Inc, priority 2008, dated 2011).

Key:
[1] = biological target: human histamine receptor type 1 (Homo sapiens, UniProt P35367); assay: In vitro histamine receptor cell-based assay, H1R antagonist (aequorin bioluminescence); conditions: CHO-K1 cells expressing human H1 receptor and aequorin; histamine at EC80
Excerpt: (§1) In Vitro Histamine Receptor Cell-Based Assays
(§2) The assays are based on an aequorin dependent bioluminescence signal, generated by receptor signaling through Gq/11 or a similarly acting G protein and a resulting transient calcium flux. Doubly-transfected, stable CHO-K1 cell lines expressing human histamine receptor type 1 or type 4, mitochondrion-targeted aequorin, and (histamine type 4 receptor only) human G protein Gα16 are obtained from Perkin-Elmer (Histamine H1 cell line, catalog ES-390-A; Histamine H4 cell line, catalog ES-393-A). Cells are maintained on conventional culture plasticware in F12 (Ham's) growth medium containing 10% (vol./vol.) fetal bovine serum, penicillin (100 IU/ml), streptomycin (0.1 mg/ml), zeocin (0.25 mg/ml) and geneticin (0.40 mg/ml), as per the manufacturer's instructions (all components from Invitrogen, Inc.). One day prior to assay, the growth medium is replaced with the same, excluding zeocin and geneticin.
(§3) To prepare cells for a histamine receptor assay, growth medium is aspirated, and the cells are rinsed with calcium-free, magnesium-free phosphate-buffered saline. The rinse is aspirated and replaced with Versene (Invitrogen, Inc.) and the cells incubated for two to three minutes at 37° C., followed by tapping the plate to fully dislodge cells. Assay medium (DMEM:F12 [50:50], phenol-red free, containing 1 mg/ml protease-free bovine serum albumin) is added to collect the cells, which are then transferred to a conical tube for centrifugation. The cell pellet is re-suspended in assay medium, and the cell density is determined by counting with a hemacytometer. The cells are then centrifuged again and re-suspended in assay medium to a final density of 5×10^6 cells/ml. Coelenterazine-h dye (500 μM in ethanol) is then added to a final concentration of 5 μM, and mixed immediately. The conical tube containing the cells is then wrapped with foil to protect the light sensitive dye. The cells are incubated for four hours further at normal room temperature (approximately 21° C.) with vertical rotation to keep them in suspension.
(§4) Just before assay, the dye-loaded cells are diluted to 0.75×10^6 cells/ml (H1 receptor) or 1.5×10^6 cells/ml (H4 receptor) with additional assay medium. Cells are dispensed to 1536 well microtiter plates at 3 μl/well. To assay receptor antagonist activity, […] of 100× concentration test compounds in dimethyl sulfoxide (DMSO) are dispensed to the wells, one compound per well, by passive pin transfer, and the plates are incubated for 15 minutes at room temperature. Assay plates are then transferred to a Lumilux (Perkin-Elmer) bioluminescence plate reader equipped with an automated 1536 well disposable tip pipette. The pipette then dispenses 3 μl/well of agonist (histamine, at twice the final concentration, where final concentration is a previously determined EC80 for response), with concurrent bioluminescence detection.
(§5) CCD imaging capture on the Lumilux instrument includes a 5 second baseline read prior to agonist addition, generally with a 40 second complete read per plate. A decrease in bioluminescence signal (measured either as area-under-the-curve, or maximum signal amplitude minus minimum signal amplitude) correlates with receptor antagonism. Negative control activity is measured with DMSO lacking any test compound. For receptor antagonist assays, positive control activity is measured with diphenhydramine (2-Diphenylmethoxy-N,N-dimethylethylamine, 10 μM final concentration, H1 receptor) or JNJ7777120 (1-[(5-Chloro-1H-indol-2-yl)carbonyl]-4-methyl-piperazine, 10 μM final concentration, H4 receptor). For receptor agonist assays, positive activity is measured with histamine (10 μM final concentration). Efficacy is measured as a percentage of positive control activity.

[2] = biological target: human histamine receptor type 4 (Homo sapiens, UniProt Q9H3N8); assay: In vitro histamine receptor cell-based assay, H4R antagonist (aequorin bioluminescence); conditions: CHO-K1 cells expressing human H4 receptor, aequorin and Gα16; histamine at EC80
Excerpt: as §1, §2, §3, §4, §5

human histamine receptor type 1, sequence (P35367 whole entry): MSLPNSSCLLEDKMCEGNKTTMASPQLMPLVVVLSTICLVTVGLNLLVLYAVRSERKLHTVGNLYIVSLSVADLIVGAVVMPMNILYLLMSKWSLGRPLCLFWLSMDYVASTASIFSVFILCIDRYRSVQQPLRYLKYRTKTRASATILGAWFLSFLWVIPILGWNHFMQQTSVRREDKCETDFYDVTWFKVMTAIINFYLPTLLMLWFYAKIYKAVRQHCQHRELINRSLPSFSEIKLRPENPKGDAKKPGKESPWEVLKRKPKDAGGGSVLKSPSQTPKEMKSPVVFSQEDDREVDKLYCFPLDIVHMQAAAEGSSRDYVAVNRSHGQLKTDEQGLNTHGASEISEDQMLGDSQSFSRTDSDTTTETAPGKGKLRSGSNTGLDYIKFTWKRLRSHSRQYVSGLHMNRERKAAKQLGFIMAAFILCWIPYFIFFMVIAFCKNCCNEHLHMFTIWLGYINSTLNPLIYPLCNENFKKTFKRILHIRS

SMILES	IC50 [1] [µM]	IC50 [2] [µM]
CCn1c2ccccc2c2cc(CN3CCOCC3)ccc21 [Example 2, 4-((9-Ethyl-9H-carbazol-3-yl)methyl)morpholine]	11.1	2.23
CCn1c2ccccc2c2cc(CN3CC(C)CC(C)C3)ccc21 (centres unmarked) [Example 4, 3-((3,5-Dimethylpiperidin-1-yl)methyl)-9-ethyl-9H-carbazole]	18.2	9.62
CCn1c2ccccc2c2cc(CN3CCCC3)ccc21 [Example 8, 9-Ethyl-3-(pyrrolidin-1-ylmethyl)-9H-carbazole]	7.55	8.5
CCn1c2ccccc2c2cc(CN3CCNCC3)ccc21 [Example 9, 9-Ethyl-3-(piperazin-1-ylmethyl)-9H-carbazole]	46.4	12.6
CCn1c2ccccc2c2cc(CN3CCCC(C(=O)O)C3)ccc21 (centres unmarked) [Example 11, 1-((9-Ethyl-9H-carbazol-3-yl)methyl)piperidine-3-carboxylic acid]	9.91	6.15
c1ccc2c(c1)[nH]c1ccc(CN3CCCC(c4ccn[nH]4)C3)cc12 (centres unmarked) [Example 15, 3-((3-(1H-pyrazol-5-yl)piperidin-1-yl)methyl)-9H-carbazole]	37.6	52.6
CCn1c2c(c3cc(CN4CCCC(c5ccn[nH]5)C4)ccc31)CCCC2 (centres unmarked) [Example 22, 6-((3-(1H-pyrazol-5-yl)piperidin-1-yl)methyl)-9-ethyl-2,3,4,9-tetrahydro-1H-carbazole]	8.72	5.9
CCn1c2ccccc2c2cc(CN3CCN(C)CC3)ccc21 [Example 25, 9-ethyl-3-((4-methylpiperazin-1-yl)methyl)-9H-carbazole]	2.58	0.66
CN(C)CCCn1c2ccccc2c2cc(CN3CCCC(c4ccn[nH]4)C3)ccc21 (centres unmarked) [Example 26, 3-(3-((3-(1H-pyrazol-5-yl)piperidin-1-yl)methyl)-9H-carbazol-9-yl)-N,N-dimethylpropan-1-amine]	21.1	19.8
CN(C)CCCn1c2ccccc2c2cc(CN3CCCC(C(N)=O)C3)ccc21 (centres unmarked) [Example 27, 1-((9-(3-(dimethylamino)propyl)-9H-carbazol-3-yl)methyl)piperidine-3-carboxamide]	> 30	> 30
CN(C)CCCn1c2ccccc2c2cc(CN3CCCC(N)C3)ccc21 (centres unmarked) [Example 28, 1-((9-(3-(dimethylamino)propyl)-9H-carbazol-3-yl)methyl)piperidin-3-amine]	> 30	55.9
CCn1c2ccccc2c2ccc(CN3CCCC(c4ccn[nH]4)C3)cc21 (centres unmarked) [Example 29, 2-((3-(1H-pyrazol-5-yl)piperidin-1-yl)methyl)-9-ethyl-9H-carbazole]	6.74	32.1
CCn1c2ccccc2c2cccc(CN3CCCC(c4ccn[nH]4)C3)c21 (centres unmarked) [Example 30, 1-((3-(1H-pyrazol-5-yl)piperidin-1-yl)methyl)-9-ethyl-9H-carbazole]	> 100	37.4
CCn1c2ccccc2c2c(CN3CCCC(c4ccn[nH]4)C3)cccc21 (centres unmarked) [Example 31, 4-((3-(1H-pyrazol-5-yl)piperidin-1-yl)methyl)-9-ethyl-9H-carbazole]	14.8	18.4
CCn1c2ccccc2c2c(CN3CCN(C)CC3)cccc21 [Example 32, 9-ethyl-4-((4-methylpiperazin-1-yl)methyl)-9H-carbazole]	> 30	21.9
CCn1c2ccccc2c2cccc(CN3CCN(C)CC3)c21 [Example 33, 9-ethyl-1-((4-methylpiperazin-1-yl)methyl)-9H-carbazole]	19	9.64
CCn1c2ccccc2c2ccc(CN3CCN(C)CC3)cc21 [Example 34, 9-ethyl-2-((4-methylpiperazin-1-yl)methyl)-9H-carbazole]	35.4	8.55

Continued by falling IC50 [1], values first:

IC50 [1] [µM]	IC50 [2] [µM]	SMILES
5.97	4.39	CCn1c2ccccc2c2cc(CN3CCCC(C)C3)ccc21 (centres unmarked) [Example 6, 9-Ethyl-3-((3-methylpiperidin-1-yl)methyl)-9H-carbazole]
5.94	8.09	CCn1c2ccccc2c2cc(CN3CCC(C)CC3)ccc21 [Example 5, 9-Ethyl-3-((4-methylpiperidin-1-yl)methyl)-9H-carbazole]
5.57	3.83	CCOC(=O)C1CCCN(Cc2ccc3c(c2)c2ccccc2n3CC)C1 (centres unmarked) [Example 7, Ethyl 1-((9-ethyl-9H-carbazol-3-yl)methyl)piperidine-3-carboxylate]
3.38	1.1	CCn1c2ccccc2c2cc(CN3CCCC(C(=O)N(C)C)C3)ccc21 (centres unmarked) [Example 20, 1-((9-ethyl-9H-carbazol-3-yl)methyl)-N,N-dimethylpiperidine-3-carboxamide]
3.16	1.46	CCn1c2ccccc2c2cc(CN3CCCC(CO)C3)ccc21 (centres unmarked) [Example 12, (1-((9-Ethyl-9H-carbazol-3-yl)methyl)piperidin-3-yl)methanol]
3.12	3.06	CCn1c2ccccc2c2cc(CN3CCC(O)CC3)ccc21 [Example 3, 1-((9-Ethyl-9H-carbazol-3-yl)methyl)piperidin-4-ol]
2.56	1.03	CCn1c2ccccc2c2cc(CN3CCCC(C#N)C3)ccc21 (centres unmarked) [Example 13, 1-((9-Ethyl-9H-carbazol-3-yl)methyl)piperidine-3-carbonitrile]
1.72	2.28	CCn1c2ccccc2c2cc(CN3CCCC(n4ccnn4)C3)ccc21 (centres unmarked) [Example 18, 3-((3-(1H-1,2,3-triazol-1-yl)piperidin-1-yl)methyl)-9-ethyl-9H-carbazole]
1.35	2.75	CCn1c2ccccc2c2cc(CN3CCCC(c4cnc[nH]4)C3)ccc21 (centres unmarked) [Example 21, 3-((3-(1H-Imidazol-5-yl)piperidin-1-yl)methyl)-9-ethyl-9H-carbazolee]
0.95	0.34	CCn1c2ccccc2c2cc(CN3CCCC(C(=O)NC)C3)ccc21 (centres unmarked) [Example 16, 1-((9-ethyl-9H-carbazol-3-yl)methyl)-N-methylpiperidine-3-carboxamide]
0.69	0.33	CCn1c2ccccc2c2cc(CN3CCCC(c4nnn[nH]4)C3)ccc21 (centres unmarked) [Example 14, 3-((3-(1H-tetrazol-5-yl)piperidin-1-yl)methyl)-9-ethyl-9H-carbazole]
0.68	0.18	CCn1c2ccccc2c2cc(CN3CCCC(C(N)=O)C3)ccc21 (centres unmarked) [Example 10, 1-((9-Ethyl-9H-carbazol-3-yl)methyl)piperidine-3-carboxamide]
0.59	0.99	CCn1c2ccccc2c2cc(CN3CCCC(c4nnc[nH]4)C3)ccc21 (centres unmarked) [Example 19, 3-((3-(4H-1,2,4-Triazol-3-yl)piperidin-1-yl)methyl)-9-ethyl-9H-carbazole]
0.57	4.34	CCn1c2ccccc2c2cc(CN3CCCC(c4cn[nH]c4)C3)ccc21 (centres unmarked) [Example 24, 3-((3-(1H-pyrazol-4-yl)piperidin-1-yl)methyl)-9-ethyl-9H-carbazole]
0.54	1.07	CCn1c2ccccc2c2cc(CN3CCCC(c4ccn[nH]4)C3)ccc21 (centres unmarked) [Example 1, 3-((3-(1H-pyrazol-5-yl)piperidin-1-yl)methyl)-9-ethyl-9H-carbazole]
0.53	2.28	CCn1c2ccccc2c2cc(CN3CCCC(c4ncc[nH]4)C3)ccc21 (centres unmarked) [Example 17, 3-((3-(1H-imidazol-2-yl)piperidin-1-yl)methyl)-9-ethyl-9H-carbazole]
0.09	0.96	CCn1c2ccccc2c2cc(CN3CCCC(c4cnn[nH]4)C3)ccc21 (centres unmarked) [Example 23, 3-((3-(1H-1,2,3-triazol-5-yl)piperidin-1-yl)methyl)-9-ethyl-9H-carbazole]
